# Source: patent US11331289B2, “Antimicrobial composition” (priority 2017, dated 2022)
# How the values were obtained:
# [1] = system: Methicillin-Resistant Staphylococcus aureus (MRSA); test: Time-killing curves, conclusion over strains and inocula; type: cell-based; conditions: two inocula, two strains
# Excerpt: (§1) The objective of this study is to assess in vitro the time-killing curves of oxyclozanide against four strains of Methicillin-Resistant Staphylococcus from dogs.
# (§2) Two Methicillin-Resistant Staphylococcus aureus (MRSA) and two Methicillin-Resistant Staphylococcus pseudintermedius (MRSP) isolated from the clinics have been tested.
# (§3) The assessment of time-killing curves has been realized by a broth macrodilution method (Mueller-Hinton II Broth).
# [2] = system: Methicillin-Resistant Staphylococcus pseudintermedius (MRSP); test: as above; type: cell-based; conditions: two inocula, two strains
# Excerpt: as §1, §2, §3
# MRSA 16116 = test: Time-killing curve, inoculum 10^6 CFU/ml (MIC 0.5 μg/ml); type: cell-based, Staphylococcus aureus
# Method: as §1, §2, §3
# (§4) Oxyclozanide is diluted in (DMSO) into sterile tubes in order to obtain the following concentrations from 800 to 6.25 μg/ml. Those concentrations and stock standard solution are then diluted (1/10) in Mueller-Hinton II Broth in order to obtain the following concentrations from […] (See Table 2).
# (§5) Each operation is performed under sterile conditions. Each working standard solution (10*the final active ingredient concentration) is distributed in tubes (1 ml, for a final volume of 10 ml after addition of 9 ml of inoculum). One tube without active ingredient is used as growth control (Concentration=0).
# (§6) Bacterial isolates are sub-cultured from one cryobead on Columbia agar supplemented with 5% of blood. Pure cultures are incubated during 18-24 hours at 37° C. Three to five isolated colonies of similar appearance are selected from a previous culture and transferred into tubes containing 9 ml of Mueller-Hinton II Broth. The broth is incubated during 12-18 hours at 37° C. 0.5 to 1 ml of this broth is inoculated to another Mueller-Hinton II Broth 9 ml tube which is incubated during 3 to 4 hours at 37° C. to reach the exponential growth phase. The bacterial inoculum grown exponential phase is suspended to an optical density of McFarland standard scale 0.5 equivalent to a bacterial density of 10^8 CFU/ml and then adjusted to a concentration of about 5.10^5 CFU/ml as indicated by the guideline CLSI M26-A and to a second inoculum tested: 10^6 CFU/ml.
# (§7) 9 ml of bacterial inoculum grown to exponential phase is added to 1 ml of active ingredient (or Mueller Hinton II Broth for the growth control). Tubes are incubated at 35° C. during 24 hours.
# (§8) At times 0, 2, 4, 6 and 24 hours, 100 μl of broth of each tube is sampled and diluted in microplates:
# (§9) Each well is re-cultured by streaking 10 μl on Columbia agar supplemented with 5% of blood. Plates are incubated at 37° C. during 18-24 hours incubation. Thus, residual bacterial concentrations are determined (CFU/ml). Results are expressed in log10 values of CFU/ml over-time in broth. Due to the procedure used, the minimal bacterial concentration that can be assessed is 10^2 CFU/ml.
# MRSA 16110 = test: Time-killing curve, inoculum 10^6 CFU/ml (MIC 1 μg/ml); type: cell-based, Staphylococcus aureus
# Method: as §1, §2, §3, §4, §5, §6, §7, §8, §9
# [3] = system: Methicillin-Resistant Staphylococcus pseudintermedius (MRSP) 16125, 16127; test: Oxyclo MIC of MRSP strains; type: cell-based
# [4] = system: Staphylococcus pseudintermedius; test: Time-killing curves, conclusion over strains; type: cell-based
# Method: (§10) The time-killing curve is used to determine the bactericidal or bacteriostatic activity of the antibimicrobial substances. Time-killing curves of Oxyclozanide against canine isolates of Staphylococcus aureus and Staphylococcus pseudintermedius were obtained using broth macrodilution method. After contact of different fixed amounts of Oxyclozanide with an inoculum, viable bacteria are counted immediately after contact and after 1, 3, 6 and 24 hours. Counting is performed on agar medium without antimicrobial substance.
# (§11) Results are analyzed by plotting log10 CFU/ml versus time for each tested concentration. Bactericidal activity as defined by 99.9% killing of the inoculum is determined from time-killing curves by noting the presence of a ≥3 log10 decrease in CFU/ml.
# (§12) Bactericidal activity as defined by 99.9% killing of the inoculum is determined from time-killing curves by noting the presence of a ≥3 log10 decrease in CFU/ml.
# Staphylococcus aureus = test: Time-killing curves, conclusion over strains; type: cell-based
# Method: as §10, §11, §12
structure (smiles),measurement,setting,value
O=C(Nc1cc(Cl)cc(Cl)c1O)c1c(O)c(Cl)cc(Cl)c1Cl [Oxyclozanide],Concentrations with concentration-dependent bactericidal effect,[1],>= 2 MIC
same,Concentrations with concentration-dependent bactericidal effect,[2],>= 2 MIC
same,Counting results,"MRSA 16116; 1 MIC, 0 h",1.500E+06 CFU/ml
same,Counting results,"MRSA 16116; 1 MIC, 2 h",3.300E+05 CFU/ml
same,Counting results,"MRSA 16116; 1 MIC, 4 h",3.900E+05 CFU/ml
same,Counting results,"MRSA 16116; 1 MIC, 6 h",1.600E+06 CFU/ml
same,Counting results,"MRSA 16116; 1 MIC, 24 h",2.700E+07 CFU/ml
same,Counting results,"MRSA 16116; 2 MIC, 0 h",1.500E+06 CFU/ml
same,Counting results,"MRSA 16116; 2 MIC, 2 h",2.200E+04 CFU/ml
same,Counting results,"MRSA 16116; 2 MIC, 4 h",1.400E+03 CFU/ml
same,Counting results,"MRSA 16116; 2 MIC, 6 h",5.000E+02 CFU/ml
same,Counting results,"MRSA 16116; 2 MIC, 24 h",5.900E+05 CFU/ml
same,Counting results,"MRSA 16116; 4 MIC, 0 h",1.500E+06 CFU/ml
same,Counting results,"MRSA 16116; 4 MIC, 2 h",2.000E+02 CFU/ml
same,Counting results,"MRSA 16116; 4 MIC, 4 h",2.000E+02 CFU/ml
same,Counting results,"MRSA 16116; 4 MIC, 6 h",1.000E+02 CFU/ml
same,Counting results,"MRSA 16116; 4 MIC, 24 h",1.000E+02 CFU/ml
same,Counting results,"MRSA 16116; 8 MIC, 0 h",1.500E+06 CFU/ml
same,Counting results,"MRSA 16116; 8 MIC, 2 h",1.000E+02 CFU/ml
same,Counting results,"MRSA 16116; 8 MIC, 4 h",1.000E+02 CFU/ml
same,Counting results,"MRSA 16116; 8 MIC, 6 h",1.000E+02 CFU/ml
same,Counting results,"MRSA 16116; 8 MIC, 24 h",1.000E+02 CFU/ml
same,Counting results,"MRSA 16116; 16 MIC, 0 h",1.500E+06 CFU/ml
same,Counting results,"MRSA 16116; 16 MIC, 2 h",3.000E+02 CFU/ml
same,Counting results,"MRSA 16116; 16 MIC, 4 h",1.000E+02 CFU/ml
same,Counting results,"MRSA 16116; 16 MIC, 6 h",1.000E+02 CFU/ml
same,Counting results,"MRSA 16116; 16 MIC, 24 h",1.000E+02 CFU/ml
same,Time to obtain bactericidal effect at 4 MIC,"MRSA 16116; 16116/10^6 CFU/ml, >=3 log10 decrease in CFU",2 h
same,Counting results,"MRSA 16116; ¼ MIC, 0 h",1.500E+06 CFU/ml
same,Counting results,"MRSA 16116; ¼ MIC, 2 h",2.800E+06 CFU/ml
same,Counting results,"MRSA 16116; ¼ MIC, 4 h",2.600E+07 CFU/ml
same,Counting results,"MRSA 16116; ¼ MIC, 6 h",3.000E+08 CFU/ml
same,Counting results,"MRSA 16116; ¼ MIC, 24 h",3.900E+08 CFU/ml
same,Counting results,"MRSA 16116; ½ MIC, 0 h",1.500E+06 CFU/ml
same,Counting results,"MRSA 16116; ½ MIC, 2 h",3.000E+06 CFU/ml
same,Counting results,"MRSA 16116; ½ MIC, 4 h",3.600E+07 CFU/ml
same,Counting results,"MRSA 16116; ½ MIC, 6 h",2.300E+08 CFU/ml
same,Counting results,"MRSA 16116; ½ MIC, 24 h",3.100E+08 CFU/ml
same,Counting results,"MRSA 16110; 1 MIC, 0 h",2.000E+06 CFU/ml
same,Counting results,"MRSA 16110; 1 MIC, 2 h",8.300E+04 CFU/ml
same,Counting results,"MRSA 16110; 1 MIC, 4 h",3.400E+04 CFU/ml
same,Counting results,"MRSA 16110; 1 MIC, 6 h",3.500E+03 CFU/ml
same,Counting results,"MRSA 16110; 1 MIC, 24 h",7.900E+06 CFU/ml
same,Counting results,"MRSA 16110; 2 MIC, 0 h",2.000E+06 CFU/ml
same,Counting results,"MRSA 16110; 2 MIC, 2 h",4.000E+02 CFU/ml
same,Counting results,"MRSA 16110; 2 MIC, 4 h",2.000E+02 CFU/ml
same,Counting results,"MRSA 16110; 2 MIC, 6 h",1.000E+02 CFU/ml
same,Counting results,"MRSA 16110; 2 MIC, 24 h",1.000E+02 CFU/ml
same,Counting results,"MRSA 16110; 4 MIC, 0 h",2.000E+06 CFU/ml
same,Counting results,"MRSA 16110; 4 MIC, 2 h",1.000E+02 CFU/ml
same,Counting results,"MRSA 16110; 4 MIC, 4 h",1.000E+02 CFU/ml
same,Counting results,"MRSA 16110; 4 MIC, 6 h",1.000E+02 CFU/ml
same,Counting results,"MRSA 16110; 4 MIC, 24 h",1.000E+02 CFU/ml
same,Counting results,"MRSA 16110; 8 MIC, 0 h",2.000E+06 CFU/ml
same,Counting results,"MRSA 16110; 8 MIC, 2 h",1.000E+02 CFU/ml
same,Counting results,"MRSA 16110; 8 MIC, 4 h",1.000E+02 CFU/ml
same,Counting results,"MRSA 16110; 8 MIC, 6 h",1.000E+02 CFU/ml
same,Counting results,"MRSA 16110; 8 MIC, 24 h",1.000E+02 CFU/ml
same,Counting results,"MRSA 16110; 16 MIC, 0 h",2.000E+06 CFU/ml
same,Counting results,"MRSA 16110; 16 MIC, 2 h",2.000E+02 CFU/ml
same,Counting results,"MRSA 16110; 16 MIC, 4 h",1.000E+02 CFU/ml
same,Counting results,"MRSA 16110; 16 MIC, 6 h",1.000E+02 CFU/ml
same,Counting results,"MRSA 16110; 16 MIC, 24 h",1.000E+02 CFU/ml
same,Time to obtain bactericidal effect at 4 MIC,"MRSA 16110; 16110/10^6 CFU/ml, >=3 log10 decrease in CFU",2 h
same,Counting results,"MRSA 16110; ¼ MIC, 0 h",2.000E+06 CFU/ml
same,Counting results,"MRSA 16110; ¼ MIC, 2 h",8.000E+06 CFU/ml
same,Counting results,"MRSA 16110; ¼ MIC, 4 h",4.000E+07 CFU/ml
same,Counting results,"MRSA 16110; ¼ MIC, 6 h",2.400E+07 CFU/ml
same,Counting results,"MRSA 16110; ¼ MIC, 24 h",4.100E+07 CFU/ml
same,Counting results,"MRSA 16110; ½ MIC, 0 h",2.000E+06 CFU/ml
same,Counting results,"MRSA 16110; ½ MIC, 2 h",6.900E+05 CFU/ml
same,Counting results,"MRSA 16110; ½ MIC, 4 h",4.300E+06 CFU/ml
same,Counting results,"MRSA 16110; ½ MIC, 6 h",4.800E+07 CFU/ml
same,Counting results,"MRSA 16110; ½ MIC, 24 h",3.700E+07 CFU/ml
same,MIC,[3]; MRSP 16125,0.5 µg/mL
same,MIC,[3]; MRSP 16127,0.25 µg/mL
same,Pharmacodynamic profile,[4],concentration-dependant
same,Contact time at which bactericidal effect (≥3 log10 decrease in CFU/ml) is observed,[4]; concentration of 4 μg/ml,24 hours
same,Contact time at which bactericidal effect (≥3 log10 decrease in CFU/ml) is observed,[4]; concentration of 8 μg/ml,6 to 24 hours
same,Pharmacodynamic profile,Staphylococcus aureus,concentration-dependant
same,Contact time at which bactericidal effect (≥3 log10 decrease in CFU/ml) is observed,Staphylococcus aureus; concentration of 4 μg/ml,24 hours
same,Contact time at which bactericidal effect (≥3 log10 decrease in CFU/ml) is observed,Staphylococcus aureus; concentration of 8 μg/ml,6 to 24 hours
